From patent US20230181532A1, “GRANULES FOR 3D PRINTING TECHNOLOGY” (BOARD OF REGENTS, THE UNIVERSITY OF TEXAS SYSTEM, priority 2020, published 2023)

Columns and labels:
Type in all cases: physicochemical
Angle of repose (AOR) = assay: Angle of repose (AOR)
Description: A 100 mm circular test platform together with a digital height gauge having a range of 0-300 mm and an accuracy of 0.03 mm was used (BEP2, Copley Scientific Limited. Nottingham, UK). […] The surplus powder was collected in a tray below the test platform. The nozzle (10 mm nozzle for the angle of repose) of the funnel was placed 75 mm above the test platform, and the nozzle was secured using the shutter mechanism. 100 g of the sample (drug and granules) were placed in the funnel, and the shutter was moved gently but rapidly to allow the powder to flow. The powder formed a conical on the test platform and started overflowing. […] The height of the powder cone was measured using the digital height gauge and the diameter of the cone was 100 (diameter of the platform was 100 mm). Equation 2 was used to calculate the angle of repose.

[1] = Flow through orifice powder flow test
Description: A United States Pharmacopoeia (USP) compliant flowability tester, with funnel attachments (BEP2, Copley Scientific Limited, Nottingham, UK) was used for the flow-through orifice study. The purpose of this test was to stimulate the flow in a hopper or other mass transfer situations (Taylor et al., 2000). The funnel was placed 40 mm above the collecting beaker, and the beaker was placed on a measuring scale. The nozzle was fixed onto the funnel and the shutter mechanism was used to prevent any premature flow from the funnel. 100 g of the sample powder was transferred to the funnel and the test was started 30 s after the transfer (this facilitated floccule formation). The weight was recorded for the samples with respect to the time in triplicates (n=3) for each nozzle diameter (10, 15, and 25 mm) and samples (PA 12 (reference), granules, and drug). Time versus weight curves were constructed for the processed granules and the properties were compared with PA 12.

[2] = In vitro release testing, pH shift dissolution (USP type II paddle); details: pH 2, 2 h
Method: The in vitro release testing was performed using a pH shift protocol to simulate physiological conditions and contrary to the USP dissolution medium i.e., pH 7.2 phosphate buffer. […] Moreover, because of its pKa and hydrophobicity, and the amorphous nature of the drug in the samples of interest, it was important to expose it to acidic conditions before exposing it to relatively basic conditions. […] If the drug exists in its amorphous form in the formulation, it is crucial to study its stability in the acidic pH as in the physiological environment the formulation will be exposed to it first.
For this pH-shift dissolution test, the above-mentioned samples (n=3) were introduced into 750 mL of HCl-KCl buffer (pH 2, 0.1 M, hydrochloric acid-potassium chloride buffer) for 2 h using a 900 mL vessel. 150 mL of phosphate buffer (pH6.8, 0.1 M) was then introduced to each vessel shifting the pH from 2 to 6.8, with a final volume of 900 mL. […] The dissolution of the samples was tested at the final pH of 6.8 for an additional 2 h. The test was conducted using a Paddle type assembly (USP type II). […] Acetonitrile was used to dilute (2-fold) the drawn samples and the previously described method of analysis was used to quantify the API in the samples.

SMILES: COc1ccc2c(c1)c(CC(=O)O)c(C)n2C(=O)c1ccc(Cl)cc1 [IND, Indomethacin]
- flow classification as per the AOR reference table (Angle of repose (AOR)): very poor
- angle of repose θ value (Angle of repose (AOR); 10 mm nozzle, 100 g sample, n=3): 58.2±0.06 °
- flow through orifice observation [1]: no flow throughout the test
- dissolution behaviour in acidic environment [2]: did not show any improvement in their solubility
